Assay results: patent publication US20060276385A1, “Anti-inflammatory agents and methods of their use” (priority 2003, published 2006)
Residues, ends and D or L forms follow the SMILES beside them. *: point of attachment. Cbz = O=C(OCc1ccccc1)*

Assays:
[1] = system: ICAM-1; assay: ICAM-1 surface expression by FACS analysis in HAEC; assay type: cell-based, human; settings: for BMP4-induced ICAM-1 expression in presence of ROS scavenger: HAEC transfected with BMP4; for effect on OS-induced ICAM-1 expression: HAEC exposed to OS 1 day, PEG-catalase or Tiron included during shear
Protocol: (§1) Endothelial cells: Mouse aortic endothelial cells (MAEC) were cultured and used at passages 4-8 as described (Cai, H., et al. (2002) J Bio Chem 107, 48311-48317). Human aortic endothelial cells (HAEC) purchased from Clonetics were cultured using EGM-2 bullet kit (Clonetics) and used at passages 4-8. Alternatively, endothelial cells obtained from the thoracic aortas of C57/BL6 control (MAE-wt) and p47^phox-null mice (MAE-p47^−/−) were isolated and cultured as described previously (Hwang, J. et al. (2003) J Biol Chem 278:47291-8), and used between passages 4-10.
(§2) Shear stress studies: Confluent endothelial monolayers grown in 100 mm tissue culture dishes were exposed to an arterial level of uni-directional LS (15 dyn/cm^2) in the growth medium by rotating a Teflon cone (0.5° cone angle) as described previously. To mimic unstable shear conditions in vivo, endothelial cells were exposed to OS with directional changes of flow at 1 Hz cycle (±5 dyn/cm^2) by rotating the cone back-and-forth using a stepping motor (Servo Motor) and a computer program (DC Motor Company, Atlanta, Ga.). In some studies, 5 dyn/cm^2 unidirectional LS was used for comparison to OS (±5 dyn/cm^2).
(§3) Fluorescence activated cytometry sorting (FACS) analysis: Treated cells were dissociated into single cell suspensions using 0.25% trypsin-EDTA and resuspended in a FACS buffer (Hank's buffered solution containing 5% FBS). Aliquots of cell suspensions were incubated with ICAM-1 antibody (R&D Systems) for 20 min on ice, washed twice with FACS buffer, and incubated with secondary antibody (fluorescein-5-isothiocyanate- or phycoerytherin-conjugated, Chemicon) for 20 min on ice in the dark. Then samples were washed again, fixed in 1% paraformaldehyde and analyzed by FACS (Calibur, Becton-Dickinson) using CellQuest software. The fluorescence intensity of ICAM-1 and forward cell scattering of 30,000 cells were measured and the geometric means calculated from histograms were shown. In some studies, HAEC were transfected with either BMP4 cloned in a bi-cistronic pAdTrack CMV vector or an empty vector, both expressing green fluorescent protein (GFP), using Lipofectamine 2000. In these experiments, ICAM-1 expression was measured in the red phycoerytherin channel, while the green channel was used to monitor the […] expression-GFP expression was determined by FACS analysis and fluorescence microscopy (20-30% transfection efficiency). Because expression of GFP was similar among different treatment groups within the same experiment, it was unnecessary to normalize ICAM-1 expression data to GFP level. Human recombinant noggin was purchased from R&D Systems and used in all experiments at 50 ng/ml (Dale, L., and Jones, C. M. (1999) Bioessays 21, 751-760; Zimmerman, L. B., et al. (1996) Cell 86, 599-606; Brunei, L. J., et al. (1998) Science 280, 1455-1457).

[2] = system: MAEC; assay: Monocyte adhesion: THP-1 monocytes bound to mouse aortic endothelial cells; assay type: cell-based; settings: for effect on BMP4-induced monocyte adhesion: MAE-wt, BMP4 20 ng/ml 18 hrs, YN1 5 μg/ml last 30 min, PEG-catalase 100 U/ml 18 hrs or Tiron 10 μmol/L 1 hr pre-incubation
Protocol: as §1, §2
(§4) Monocyte Adhesion: Monocyte binding was determined under no-flow conditions using THP-1 monocytes (ATCC) by the method described by Chappel et al (Chappell, D. C., et al. (1998) Circ Res 82, 532-539). Briefly, THP-1 cells (5×10^5 cells/ml) were labeled with a fluorescent dye 2′,7′-bis(carboxyethyl)-5(6)-carboxyfluorescein-AM (BCECF, Molecular Probes) (1 mg/ml) in serum-free RPMI medium for 45 min at 37° C. Following exposure to shear stress or BMP treatments in the presence or absence of noggin or vehicle, the endothelial cells were washed in RPMI medium before adding BCECF-loaded THP-1 cells (1:1 ratio). After a 30 min incubation at 37° C. under no-flow conditions, unbound monocytes were removed by washing the endothelial dishes 5 times with Hank's PBS. Bound monocytes were quantified by either counting the cells under a fluorescent microscope or by measuring the fluorescent intensity of cell lysates by fluorescence spectrophotometry using a plate reader. […] Some studies were performed with MAEC pretreated with 5 μg/ml of mouse-ICAM1 antibody (YN1, Southern Biolechonology) (Kevil, C. G., et al. (2001) Am J Physiol Cell Physiol 281, C1442-1447).
In FIG. 7B, confluent MAE-wt cells were pre-incubated with cell-permeable PEG-catalase (Catalase, 100 U/ml for 18 hrs) or Tiron (10 μmol/L for 1 hr). Cells were then incubated with 20 ng/ml BMP4 or vehicle for additional 18 hrs. The treated cells in 7A and 7B were washed, and fluorescently-labeled THP-1 monocytes were added. Unbound THP-1 cells were washed after 30 min, and bound monocytes were counted with a fluorescence microscope using a 10× objective (5-10 different fields per dish). […] As a positive control, monocyte binding was determined using MAE-wt treated with TNF-α(100 U/ml for 2hrs).

[3] = system: VCAM-1; assay: VCAM-1 expression in endothelial cells; assay type: cell-based, human; settings: HAEC, FACS; TNF-α 100 U/ml for 2 hr as positive control
Protocol: as §3
(§5) HAEC treated with OS, BMP4 or static condition were analyzed by FACS using antibodies specific to VCAM-1 (C) and E-selectin (D) as described in panel A using TNFa (1OOU/ml, for 2 hr) as a positive control.

[4] = system: E-selectin; assay: E-selectin surface expression by FACS analysis in HAEC; assay type: cell-based, human; settings: TNF-α 100 U/ml for 2 hr as positive control
Protocol: Fluorescence activated cytometry sorting (FACS) analysis: Treated cells were dissociated into single cell suspensions using 0.25% trypsin-EDTA and resuspended in a FACS buffer (Hank's buffered solution containing 5% FBS). Aliquots of cell suspensions were incubated with ICAM-1 antibody (R&D Systems) for 20 min on ice, washed twice with FACS buffer, and incubated with secondary antibody (fluorescein-5-isothiocyanate- or phycoerytherin-conjugated, Chemicon) for 20 min on ice in the dark. Then samples were washed again, fixed in 1% paraformaldehyde and analyzed by FACS (Calibur, Becton-Dickinson) using CellQuest software. The fluorescence intensity of ICAM-1 and forward cell scattering of 30,000 cells were measured and the geometric means calculated from histograms were shown. […] In these experiments, ICAM-1 expression was measured in the red phycoerytherin channel, while the green channel was used to monitor the […] expression-GFP expression was determined by FACS analysis and fluorescence microscopy (20-30% transfection efficiency). […]
as §5

[5] = system: MAE-p47−/− cells; assay: Monocyte adhesion to p47phox-null endothelial cells, with or without p47phox transfection; assay type: cell-based, mouse; settings: MAE-p47−/− cells transfected with p47phox (rescued); BMP4 20 ng/ml or TNF-α 100 U/ml, 18 hrs
Protocol: as §1, §4
Transfection of p47phox: In some studies MAE-p47^−/− cells were trasnfected withp47phox expression vector or an empty vector as described (Hwang, J. et al. (2003) J Biol Chem278-47291-8).
Next, monocyte adhesion was determined in these cells. […] After 18 hrs, cells were washed and monocyte binding was determined as described in FIG. 7. […]

[6] = system: MAE-wt cells; assay: O2− assay by electron spin resonance spectroscopy with CMH spin probe; assay type: cell-based, mouse; settings: MAE-wt exposed to OS for 1 day, noggin during OS exposure
Protocol: O2^− Assay: O2^− production was determined by electron spin resonance spectroscopy using methoxycarbonyl-2,2,5,5-tetramethyl-pyrrolidine (CMH) as a spin probe in the presence or absence of PEG-superoxide dismutase (PEG-SOD; 50 U/ml) to quantify the SOD-inhibitable portions of CM.
In FIG. 10A immediately following treatment of MAE wt cells with BMP4 (200 ng/ml) for 18 hrs, cells were trypsinized and reconstituted in Krebs-Hepes buffer. Equal number of cells was incubated with a spin trap CMH in the presence or absence of PEG-SOD (50 U/mL). The specific O2^− production was calculated by subtracting SOD-inhibitable portions from total O2^− production as determined by following CM production (mean±SEM, n=3, *p<0.05).

[7] = system: MAE-wt cells; assay: H2O2 assay by oxidation of DCF-DA; assay type: cell-based, mouse; settings: PEG-catalase 100 U/ml for 1 day before and during BMP4 treatment
Protocol: H2O2 assay: Cells grown in 6-well plates were treated with BMP4 or vehicle control for 18 hrs in the presence or absence of cell-permeable polyethylene glycol (PEG)-catalase (100 U/ml). Cells were then washed once with Hepes buffered saline solution (HBSS) followed by incubation with 7.5 μg/ml 2′, 7′-dichlorofluorescein diacetate (DCF-DA, Molecular Probes) in HBSS for 1 hr at 37 C° in the dark. Cells were washed with HBSS, incubated further for an additional 40 min in HBSS, and the DCF fluorescence intensities were measured in a Cytofluor Multi-Well plate reader (excitation at 475 nm and emission at 525 nm).
In addition, BMP4 stimulated production of H2O2 by 70% above control as determined by oxidation of DCF-DA (FIG. 10B). […] The cells were washed, incubated with DCF-DA, and the fluorescent intensities determined by fluorometry. Shown is a mean±SEM (n=3, p<0.05). In this assay, a redox cycling menadione (10 μM) was used as positive control (data not shown).

## CC(C)C[C@@H](C=O)NC(=O)[C@H](CC(C)C)NC(=O)[C@H](CC(C)C)NC(=O)OCc1ccccc1 [MG132, reference compound] (Cbz-Leu-Leu-Leu-aldehyde)
[1]; HAEC, in the presence of NF-κB translocation inhibitor, inactive peptide or proteosome inhibitor
  effect on ICAM-1 expression induced by BMP4: completely prevented

## CC(=O)N[C@@H](CS)C(=O)O [N-Acetyl-cysteine, reference compound]
[1]
  BMP4-induced ICAM-1 expression in presence of ROS scavenger: 23 % of control

## O=S(=O)(O)c1cc(O)c(O)c(S(=O)(=O)O)c1 [Tiron, reference compound]
[2]
  effect on BMP4-induced monocyte adhesion: completely blocked
[1]; noggin 50 ng/ml
  effect on OS-induced ICAM-1 expression: completely prevented

## TNF-α [reference compound]
[3]
  effect on surface expression of VCAM-1: strongly increased
[4]
  effect on surface expression of E-selectin: strongly increased
[5]
  increase in monocyte adhesion above the control: approximately 4 fold
[1]; HAEC, TNF-α 100 U/ml for 2 hr
  ICAM-1 expression above control cells: 4 to 5 fold

B1: noggin (protein, UniProt Q13253 28-232, looked up)
Noggin: QHYLHIRPAPSDNLPLVDLIEHPDPIFDPKEKDLNETLLRSLLGGHYDPGFMATSPPEDRPGGGGGAAGGAEDLAELDQLLRQRPSGAMPSEIKGLEFSEGLAQGKKQRLSKKLRRKLQMWLWSQTFCPVLYAWNDLGSRFWPRYVKVGSCFSKRSCSVPEGMVCKPSKSVHLTVLRWRCQRRGGQRCGWIPIQYPIISECKCSC
notes: natural BMP antagonist
[6]
  effect on OS-induced O2− increase: virtually blocked
[2]; MAEC, OS 24 hr, noggin 50 ng/ml
  effect on OS-induced monocyte adhesion: inhibited OS-induced monocyte adhesion
[1]; noggin 50 ng/ml
  effect on OS-induced ICAM-1 expression: completely inhibited
[1]; HAEC, TNF-α 100 U/ml for 6 hr, noggin 50 ng/ml
  effect on TNF-α-induced ICAM-1 expression: did not affect

B2: PEG-catalase: cell-permeable polyethylene glycol-catalase converting H2O2 to H2O, 100 U/ml (protein, UniProt P00432 2-527, looked up)
Catalase: ADNRDPASDQMKHWKEQRAAQKPDVLTTGGGNPVGDKLNSLTVGPRGPLLVQDVVFTDEMAHFDRERIPERVVHAKGAGAFGYFEVTHDITRYSKAKVFEHIGKRTPIAVRFSTVAGESGSADTVRDPRGFAVKFYTEDGNWDLVGNNTPIFFIRDALLFPSFIHSQKRNPQTHLKDPDMVWDFWSLRPESLHQVSFLFSDRGIPDGHRHMNGYGSHTFKLVNANGEAVYCKFHYKTDQGIKNLSVEDAARLAHEDPDYGLRDLFNAIATGNYPSWTLYIQVMTFSEAEIFPFNPFDLTKVWPHGDYPLIPVGKLVLNRNPVNYFAEVEQLAFDPSNMPPGIEPSPDKMLQGRLFAYPDTHRHRLGPNYLQIPVNCPYRARVANYQRDGPMCMMDNQGGAPNYYPNSFSAPEHQPSALEHRTHFSGDVQRFNSANDDNVTQVRTFYLKVLNEEQRKRLCENIAGHLKDAQLFIQKKAVKNFSDVHPEYGSRIQALLDKYNEEKPKNAVHTYVQHGSHLSAREKANL
modifications: PEG conjugated
notes: cell-permeable polyethylene glycol-catalase converting H2O2 to H2O, 100 U/ml
[7]
  effect on BMP-dependent H2O2 production: completely blocked
[2]
  effect on BMP4-induced monocyte adhesion: completely blocked
[1]; noggin 50 ng/ml
  effect on OS-induced ICAM-1 expression: completely prevented
[1]
  BMP4-induced ICAM-1 expression in presence of ROS scavenger: 26 % of control
